Assay: xn = mol fraction of the nth substance listed
Settings: Liquid, Vibrating tube method

CCCCCCCCCCC [undecane] + CCCCCCC
Settings	mass density [kg/m3]
352.96 K, 20000 kPa, x2 = 0.05	712.1
352.96 K, 20000 kPa, x2 = 0.5063	690.9
352.96 K, 21000 kPa, x2 = 0.05	712.9
352.96 K, 21001 kPa, x2 = 0.5063	691.8
352.96 K, 22001 kPa, x2 = 0.05	713.8
352.96 K, 22050 kPa, x2 = 0.5063	692.7
352.96 K, 23000 kPa, x2 = 0.05	714.6
352.96 K, 23000 kPa, x2 = 0.5063	693.6
352.96 K, 24000 kPa, x2 = 0.05	715.4
352.96 K, 24000 kPa, x2 = 0.5063	694.5
352.96 K, 25000 kPa, x2 = 0.05	716.2
352.96 K, 25000 kPa, x2 = 0.5063	695.3
352.97 K, 1000 kPa, x2 = 0.7482	654
352.97 K, 2000 kPa, x2 = 0.7482	655.3
352.97 K, 3000 kPa, x2 = 0.7482	656.6
352.97 K, 4000 kPa, x2 = 0.7482	657.8
352.97 K, 5000 kPa, x2 = 0.7482	659.1
352.97 K, 6000 kPa, x2 = 0.7482	660.3
352.97 K, 7000 kPa, x2 = 0.7482	661.5
352.97 K, 8000 kPa, x2 = 0.7482	662.7
352.97 K, 9000 kPa, x2 = 0.7482	663.9
352.97 K, 10000 kPa, x2 = 0.7482	665
352.97 K, 11000 kPa, x2 = 0.7482	666.1
352.97 K, 12000 kPa, x2 = 0.7482	667.2
352.97 K, 13000 kPa, x2 = 0.7482	668.3
352.97 K, 14000 kPa, x2 = 0.7482	669.4
352.97 K, 15000 kPa, x2 = 0.7482	670.5
352.97 K, 16000 kPa, x2 = 0.7482	671.5
352.97 K, 17000 kPa, x2 = 0.7482	672.5
352.97 K, 18000 kPa, x2 = 0.7482	673.5
352.97 K, 19000 kPa, x2 = 0.7482	674.5
352.97 K, 20000 kPa, x2 = 0.7482	675.5
352.97 K, 21000 kPa, x2 = 0.7482	676.5
352.97 K, 22000 kPa, x2 = 0.7482	677.4
352.97 K, 23000 kPa, x2 = 0.7482	678.3
352.97 K, 24000 kPa, x2 = 0.7482	679.2
352.97 K, 25000 kPa, x2 = 0.7482	680.2
352.99 K, 1015 kPa, x2 = 0.2346	685.9
352.99 K, 2016 kPa, x2 = 0.2346	687
352.99 K, 3016 kPa, x2 = 0.2346	688.1
352.99 K, 4017 kPa, x2 = 0.2346	689.2
352.99 K, 5018 kPa, x2 = 0.2346	690.2
352.99 K, 6019 kPa, x2 = 0.2346	691.3
352.99 K, 7020 kPa, x2 = 0.2346	692.3
352.99 K, 8020 kPa, x2 = 0.2346	693.3
352.99 K, 9021 kPa, x2 = 0.2346	694.4
352.99 K, 10022 kPa, x2 = 0.2346	695.3
352.99 K, 11022 kPa, x2 = 0.2346	696.3
352.99 K, 12023 kPa, x2 = 0.2346	697.3
352.99 K, 13024 kPa, x2 = 0.2346	698.2
352.99 K, 14025 kPa, x2 = 0.2346	699.2
352.99 K, 15026 kPa, x2 = 0.2346	700.1
352.99 K, 16027 kPa, x2 = 0.2346	701
352.99 K, 17028 kPa, x2 = 0.2346	701.9
352.99 K, 18030 kPa, x2 = 0.2346	702.8
352.99 K, 19030 kPa, x2 = 0.2346	703.7
352.99 K, 20031 kPa, x2 = 0.2346	704.5
352.99 K, 21066 kPa, x2 = 0.2346	705.4
352.99 K, 22068 kPa, x2 = 0.2346	706.3
352.99 K, 23071 kPa, x2 = 0.2346	707.1
352.99 K, 24073 kPa, x2 = 0.2346	707.9
352.99 K, 25076 kPa, x2 = 0.2346	708.7
362.87 K, 1001 kPa, x2 = 0.9511	628.1
362.87 K, 2000 kPa, x2 = 0.9511	629.7
362.87 K, 3000 kPa, x2 = 0.9511	631.1
362.87 K, 4000 kPa, x2 = 0.9511	632.6
362.87 K, 5000 kPa, x2 = 0.9511	634
362.87 K, 6000 kPa, x2 = 0.9511	635.4
362.87 K, 7000 kPa, x2 = 0.9511	636.8
362.87 K, 8000 kPa, x2 = 0.9511	638.2
362.87 K, 9000 kPa, x2 = 0.9511	639.5
362.87 K, 10000 kPa, x2 = 0.9511	640.8
362.87 K, 11000 kPa, x2 = 0.9511	642.1
362.87 K, 12000 kPa, x2 = 0.9511	643.4
362.87 K, 13000 kPa, x2 = 0.9511	644.6
362.87 K, 14001 kPa, x2 = 0.9511	645.8
362.87 K, 15001 kPa, x2 = 0.9511	647
362.87 K, 16000 kPa, x2 = 0.9511	648.2
362.87 K, 17001 kPa, x2 = 0.9511	649.3
362.87 K, 18001 kPa, x2 = 0.9511	650.5
362.87 K, 19000 kPa, x2 = 0.9511	651.6
362.87 K, 20000 kPa, x2 = 0.9511	652.7
362.87 K, 21001 kPa, x2 = 0.9511	653.8
362.87 K, 22000 kPa, x2 = 0.9511	654.9
362.87 K, 23001 kPa, x2 = 0.9511	655.9
362.87 K, 24000 kPa, x2 = 0.9511	656.9
362.87 K, 25000 kPa, x2 = 0.9511	658
362.91 K, 1000 kPa, x2 = 0.7482	645.5
362.91 K, 1023 kPa, x2 = 0.2346	678.2
362.91 K, 2000 kPa, x2 = 0.7482	646.9
362.91 K, 2024 kPa, x2 = 0.2346	679.4
362.91 K, 3000 kPa, x2 = 0.7482	648.3
362.91 K, 3026 kPa, x2 = 0.2346	680.6
362.91 K, 4000 kPa, x2 = 0.7482	649.6
362.91 K, 4027 kPa, x2 = 0.2346	681.7
362.91 K, 5000 kPa, x2 = 0.7482	650.9
362.91 K, 5028 kPa, x2 = 0.2346	682.8
362.91 K, 6000 kPa, x2 = 0.7482	652.2
362.91 K, 6029 kPa, x2 = 0.2346	683.9
362.91 K, 7000 kPa, x2 = 0.7482	653.5
362.91 K, 7031 kPa, x2 = 0.2346	685
362.91 K, 8000 kPa, x2 = 0.7482	654.7
362.91 K, 8032 kPa, x2 = 0.2346	686.1
362.91 K, 9000 kPa, x2 = 0.7482	656
362.91 K, 9033 kPa, x2 = 0.2346	687.1
362.91 K, 10000 kPa, x2 = 0.7482	657.2
362.91 K, 10035 kPa, x2 = 0.2346	688.2
362.91 K, 11000 kPa, x2 = 0.7482	658.4
362.91 K, 11036 kPa, x2 = 0.2346	689.2
362.91 K, 12000 kPa, x2 = 0.7482	659.5
362.91 K, 12037 kPa, x2 = 0.2346	690.2
362.91 K, 13000 kPa, x2 = 0.7482	660.7
362.91 K, 13038 kPa, x2 = 0.2346	691.2
362.91 K, 14000 kPa, x2 = 0.7482	661.8
362.91 K, 14040 kPa, x2 = 0.2346	692.2
362.91 K, 15000 kPa, x2 = 0.7482	662.9
362.91 K, 15041 kPa, x2 = 0.2346	693.2
362.91 K, 16000 kPa, x2 = 0.7482	664
362.91 K, 16043 kPa, x2 = 0.2346	694.1
362.91 K, 17000 kPa, x2 = 0.7482	665.1
362.91 K, 17044 kPa, x2 = 0.2346	695.1
362.91 K, 18000 kPa, x2 = 0.7482	666.2
362.91 K, 18046 kPa, x2 = 0.2346	696
362.91 K, 19000 kPa, x2 = 0.7482	667.2
362.91 K, 19047 kPa, x2 = 0.2346	696.9
362.91 K, 20000 kPa, x2 = 0.7482	668.3
362.91 K, 20049 kPa, x2 = 0.2346	697.8
362.91 K, 21000 kPa, x2 = 0.7482	669.3
362.91 K, 21083 kPa, x2 = 0.2346	698.8
362.91 K, 22000 kPa, x2 = 0.7482	670.3
362.91 K, 22086 kPa, x2 = 0.2346	699.6
362.91 K, 23000 kPa, x2 = 0.7482	671.3
362.91 K, 23089 kPa, x2 = 0.2346	700.5
362.91 K, 24000 kPa, x2 = 0.7482	672.2
362.91 K, 24092 kPa, x2 = 0.2346	701.4
362.91 K, 25000 kPa, x2 = 0.7482	673.2
362.91 K, 25095 kPa, x2 = 0.2346	702.2
362.92 K, 1001 kPa, x2 = 0.05	686.5
362.92 K, 2001 kPa, x2 = 0.05	687.6
362.92 K, 3000 kPa, x2 = 0.05	688.7
362.92 K, 4000 kPa, x2 = 0.05	689.8
362.92 K, 5000 kPa, x2 = 0.05	690.9
362.92 K, 6000 kPa, x2 = 0.05	692
362.92 K, 7000 kPa, x2 = 0.05	693
362.92 K, 8001 kPa, x2 = 0.05	694.1
362.92 K, 9000 kPa, x2 = 0.05	695.1
362.92 K, 10000 kPa, x2 = 0.05	696.1
362.92 K, 11000 kPa, x2 = 0.05	697.1
362.92 K, 12000 kPa, x2 = 0.05	698.1
362.92 K, 13000 kPa, x2 = 0.05	699.1
362.92 K, 14000 kPa, x2 = 0.05	700
362.92 K, 15000 kPa, x2 = 0.05	701
362.92 K, 16000 kPa, x2 = 0.05	701.9
362.92 K, 17000 kPa, x2 = 0.05	702.8
362.92 K, 18000 kPa, x2 = 0.05	703.7
362.92 K, 19000 kPa, x2 = 0.05	704.6
362.92 K, 20000 kPa, x2 = 0.05	705.5
362.92 K, 21000 kPa, x2 = 0.05	706.4
362.92 K, 22001 kPa, x2 = 0.05	707.3
362.92 K, 23000 kPa, x2 = 0.05	708.1
362.92 K, 24000 kPa, x2 = 0.05	708.9
362.92 K, 25000 kPa, x2 = 0.05	709.8
362.94 K, 2001 kPa, x2 = 0.5063	664.4
362.94 K, 3000 kPa, x2 = 0.5063	665.6
362.94 K, 4000 kPa, x2 = 0.5063	666.8
362.94 K, 5000 kPa, x2 = 0.5063	668
362.94 K, 6000 kPa, x2 = 0.5063	669.2
362.94 K, 7000 kPa, x2 = 0.5063	670.4
362.94 K, 8001 kPa, x2 = 0.5063	671.5
362.94 K, 9000 kPa, x2 = 0.5063	672.6
362.94 K, 10000 kPa, x2 = 0.5063	673.8
362.94 K, 11000 kPa, x2 = 0.5063	674.8
362.94 K, 12000 kPa, x2 = 0.5063	675.9
362.94 K, 13000 kPa, x2 = 0.5063	677
362.94 K, 14000 kPa, x2 = 0.5063	678
362.94 K, 15000 kPa, x2 = 0.5063	679.1
362.94 K, 16000 kPa, x2 = 0.5063	680.1
362.94 K, 17001 kPa, x2 = 0.5063	681.1
362.94 K, 18000 kPa, x2 = 0.5063	682.1
362.94 K, 19000 kPa, x2 = 0.5063	683.1
362.94 K, 20000 kPa, x2 = 0.5063	684
362.94 K, 21001 kPa, x2 = 0.5063	685
362.94 K, 22050 kPa, x2 = 0.5063	685.9
362.94 K, 23000 kPa, x2 = 0.5063	686.9
362.94 K, 24000 kPa, x2 = 0.5063	687.8
362.94 K, 25000 kPa, x2 = 0.5063	688.7

From the NIST ThermoML archive (doi:10.1021/je400055v)
